This assay addresses IgE-Tb binding to soluble IgE receptor FcεR1α (Y131A mutation) (Homo sapiens, UniProt P01854, N146Q/N252Q). The assay can be described thus: In vitro FRET assay: inhibition of binding of IgE-Tb to receptor FcεR1α-Y131A-AF488. The conditions noted are these: read-out: FRET IC50 range.

Each structure is given as a SMILES string.

Consider 18 compounds from patent US20240092773A1, “DIHYDRO-CYCLOPENTA-ISOQUINOLINE SULFONAMIDES DERIVATIVES” (UCB Biopharma SRL, priority 2019, published 2024).

Chain of IgE-Tb binding to soluble IgE receptor FcεR1α (Y131A mutation) (P01854 whole entry N146Q/N252Q, looked up): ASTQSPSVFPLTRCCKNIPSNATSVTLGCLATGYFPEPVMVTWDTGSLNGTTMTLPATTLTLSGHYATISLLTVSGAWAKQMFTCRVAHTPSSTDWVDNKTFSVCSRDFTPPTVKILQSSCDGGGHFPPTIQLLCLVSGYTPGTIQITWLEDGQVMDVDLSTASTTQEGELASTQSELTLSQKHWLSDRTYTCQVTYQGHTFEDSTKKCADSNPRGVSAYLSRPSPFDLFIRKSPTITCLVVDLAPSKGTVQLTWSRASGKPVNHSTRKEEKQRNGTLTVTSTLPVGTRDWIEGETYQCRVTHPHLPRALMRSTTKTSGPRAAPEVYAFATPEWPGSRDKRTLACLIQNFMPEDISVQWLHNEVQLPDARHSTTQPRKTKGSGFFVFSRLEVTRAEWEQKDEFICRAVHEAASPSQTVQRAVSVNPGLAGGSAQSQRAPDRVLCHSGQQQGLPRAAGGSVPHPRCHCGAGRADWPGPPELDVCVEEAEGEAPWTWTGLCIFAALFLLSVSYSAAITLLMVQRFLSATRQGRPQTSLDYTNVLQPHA

Regarding `Cc1cc(CNC(=O)NC2CCc3cc(S(=O)(=O)NCC(C)C)c4cc(C5CC5)ncc4c32)n(C)n1` (stereo not drawn) [Example 46, 1-[3-cyclopropyl-5-(2-methylpropylsulfamoyl)-8,9-dihydro-7H-cyclopenta[h]isoquinolin-9-yl]-3-[(2,5-dimethylpyrazol-3-yl)methyl]urea], the half-maximal inhibitory concentration (IC50) is 100 to 2000 nM.

In the case of `CC(C)CNS(=O)(=O)c1cc2c(c3cnc(C4CC4)cc13)C(NC(=S)Nc1cccnc1)CC2` (stereo not drawn) [Example 74, 1-[3-cyclopropyl-5-(2-methylpropylsulfamoyl)-8,9-dihydro-7H-cyclopenta[h]isoquinolin-9-yl]-3-pyridin-3-ylthiourea], the IC50 was in the range of 100 to 2000 nM.

With `CC(C)(F)CNS(=O)(=O)c1cc2c(c3cnc(C4CC4)cc13)C(Nc1ccc3c(c1)CC(=O)N3)CC2` (stereo not drawn) [Example 29, 3-cyclopropyl-N-(2-fluoro-2-methylpropyl)-9-[(2-oxo-1,3-dihydroindol-5-yl)amino]-8,9-dihydro-7H-cyclopenta[h]isoquinoline-5-sulfonamide], the IC50 was 100 to 2000 nM.

As to `CCn1cnnc1NC1CCc2cc(S(=O)(=O)NCC(C)C)c3cc(C4CC4)ncc3c21` (single isomer, unassigned) [Example 73, (9R*)-3-cyclopropyl-9-[(4-ethyl-1,2,4-triazol-3-yl)amino]-N-(2-methylpropyl)-8,9-dihydro-7H-cyclopenta[h]isoquinoline-5-sulfonamide], the IC50 is 10 to 50 nM.

Regarding `CC(C)(F)CNS(=O)(=O)c1cc2c(c3cnc(C4CC4)cc13)CC[C@H]2NC(=O)NCC1CC1` (single isomer, unassigned) [Example 8, 1-(cyclopropylmethyl)-3-[(7R*)-3-cyclopropyl-5-[(2-fluoro-2-methylpropyl)sulfamoyl]-8,9-dihydro-7H-cyclopenta[h]isoquinolin-7-yl]urea], the concentration for half-maximal inhibition (IC50) was 100 to 2000 nM.

In the case of `CC(C)(F)CNS(=O)(=O)c1cc2c(c3cnc(C4CC4)cc13)CCC2c1cccnc1F` (stereo not drawn) [Example 11, 3-cyclopropyl-N-(2-fluoro-2-methylpropyl)-7-(2-fluoropyridin-3-yl)-8,9-dihydro-7H-cyclopenta[h]isoquinoline-5-sulfonamide], the IC50 is 100 to 2000 nM.

As to `CC(C)CNS(=O)(=O)c1cc2c(c3cnc(C4CC4)cc13)C(n1cnnc1Nc1ccnn1C)CC2` (stereo not drawn) [Example 4, 3-cyclopropyl-N-isobutyl-9-[3-[(2-methylpyrazol-3-yl)amino]-1,2,4-triazol-4-yl]-8,9-dihydro-7H-cyclopenta[h]isoquinoline-5-sulfonamide], the IC50 was 100 to 2000 nM.

In the case of `CC(C)(F)CNS(=O)(=O)c1cc2c(c3cnc(C4CC4)cc13)CC[C@@H]2NC(=O)C1CN(C(=O)OC(C)(C)C)C1` (single isomer, unassigned) [Example 56, tert-butyl 3-[[(7R*)-3-cyclopropyl-5-[(2-fluoro-2-methylpropyl)sulfamoyl]-8,9-dihydro-7H-cyclopenta[h]isoquinolin-7-yl]carbamoyl]azetidine-1-carboxylate], the IC50 lay in the range of 100 to 2000 nM.

For the compound `CC(C)CNS(=O)(=O)c1cc2c(c3cnc(C4CC4)cc13)CCC2=O` [Example 48, 3-cyclopropyl-N-(2-methylpropyl)-7-oxo-8,9-dihydrocyclopenta[h]isoquinoline-5-sulfonamide], the IC50 was in the range of 100 to 2000 nM.

For `Cn1c(NC2CCc3cc(S(=O)(=O)NCC(C)(C)F)c4cc(C5CC5)ncc4c32)nc2ccccc21` (stereo not drawn) [Example 17, 3-cyclopropyl-N-(2-fluoro-2-methylpropyl)-9-[(1-methylbenzimidazol-2-yl)amino]-8,9-dihydro-7H-cyclopenta[h]isoquinoline-5-sulfonamide], the IC50 lay in the range of 100 to 2000 nM.

For `CC(C)CNS(=O)(=O)c1cc2c(c3cnc(C4CC4)cc13)C(Nc1nncn1-c1cccc3c1nnn3C)CC2` (stereo not drawn) [Example 2, 3-cyclopropyl-N-isobutyl-9-[[4-(1-methylbenzotriazol-4-yl)-1,2,4-triazol-3-yl]amino]-8,9-dihydro-7H-cyclopenta[h]isoquinoline-5-sulfonamide], the IC50 fell in the range of 50 to 100 nM.

For `CC(C)CNS(=O)(=O)c1cc2c(c3cnc(C4CC4)cc13)CCC2NC(=S)Nc1cccnc1` (stereo not drawn) [Example 95, 1-[3-cyclopropyl-5-(isobutylsulfamoyl)-8,9-dihydro-7H-cyclopenta[h]isoquinolin-7-yl]-3-(3-pyridyl)thiourea], the IC50 is 10 to 50 nM.

Take `CC(C)(F)CNS(=O)(=O)c1cc2c(c3cnc(C4CC4)cc13)CCC2C(=O)O` (stereo not drawn) [Example 7, 3-cyclopropyl-5-[(2-fluoro-2-methylpropyl)sulfamoyl]-8,9-dihydro-7H-cyclopenta[h]isoquinoline-7-carboxylic Acid]: the IC50 lay in the range of 100 to 2000 nM.

In the case of `CC(C)(F)CNS(=O)(=O)c1cc2c(c3cnc(C4CC4)cc13)CCC2N1CCC[C@@H](N)C1` (stereo partly drawn) [Example 57, 7-[(3R)-3-aminopiperidin-1-yl]-3-cyclopropyl-N-(2-fluoro-2-methylpropyl)-8,9-dihydro-7H-cyclopenta[h]isoquinoline-5-sulfonamide], the IC50 was 100 to 2000 nM.

Turning to `CC(C)CNS(=O)(=O)c1cc2c(c3cnc(C4CC4)cc13)CCC2NS(C)(=O)=O` (stereo not drawn) [Example 83, 3-cyclopropyl-7-(methanesulfonamido)-N-(2-methylpropyl)-8,9-dihydro-7H-cyclopenta[h]isoquinoline-5-sulfonamide], the IC50 is 100 to 2000 nM.

For the compound `CC(C)(F)CNS(=O)(=O)c1cc2c(c3cnc(C4CC4)cc13)CC[C@@H]2NC(=O)c1cccnc1` (single isomer, unassigned) [Example 9, N-[(7R*)-3-cyclopropyl-5-[(2-fluoro-2-methylpropyl)sulfamoyl]-8,9-dihydro-7H-cyclopenta[h]isoquinolin-7-yl]pyridine-3-carboxamide], the IC50 fell in the range of 100 to 2000 nM.

Consider `CC(C)CNS(=O)(=O)c1cc2c(c3cnc(C4CC4)cc13)C(Nc1nncn1-c1ccnn1C)CC2` (stereo not drawn) [Example 3, 3-cyclopropyl-N-isobutyl-9-[[4-(2-methylpyrazol-3-yl)-1,2,4-triazol-3-yl]amino]-8,9-dihydro-7H-cyclopenta[h]isoquinoline-5-sulfonamide], for which the IC50 fell in the range of 100 to 2000 nM.

Turning to `Cc1cc(NC(=S)NC2CCc3c2cc(S(=O)(=O)NCC(C)(C)F)c2cc(C4CC4)nnc32)n(C)n1` (stereo not drawn) [Example 23, 1-[3-cyclopropyl-5-[(2-fluoro-2-methylpropyl)sulfamoyl]-8,9-dihydro-7H-cyclopenta[h]cinnolin-7-yl]-3-(2,5-dimethylpyrazol-3-yl)thiourea], the IC50 fell in the range of 10 to 50 nM.
